Experimental findings from the OPERA property sets (Mansouri et al. 2018) are described below.

What is called logP is the decadic logarithm of the partition coefficient of the neutral form, usually between octanol and water. Low readings indicate a more hydrophilic compound, high ones a more lipophilic compound. `N#Cc1cccc(OC(=O)CNC(=O)c2ccccc2)c1`: the logP came to 2.11. In turn, `CCCC(=O)Nc1ccc(C)cc1O` came in with a logP of 2.26. For `CC1=Nc2c(C)cccc2S(=O)(=O)N1` the value was 0.52.

In turn, `CC(C)c1ccc(C(O)C(CO)NC(=O)C(Cl)Cl)cc1` (centres undefined) gave a logP of 2.24.

For `COc1ccccc1N=NN(C)C`, the logP was determined as 2.34. For `O=C1CN=C(c2ccc(Br)cc2)c2cc(Br)ccc2N1`, the logP came to 4.04. Consider `Oc1ccc(C(c2ccncc2)c2ccc(O)cc2)cc1`, for which the logP was found to be 3.24. For `COC12C(COC(N)=O)C3=C(C(=O)C(C)=C(Nc4cccnc4)C3=O)N1CC1NC12` (centres undefined) the value was 0.52.

For `CNC(=O)Oc1ccc(S(C)(=O)=O)cc1`, the logP was 0.34. As to `COc1cc(C=C[N+](=O)[O-])ccc1O`, the logP is 1.88. For `CN1CCN(C)C1=Nc1ncc([N+](=O)[O-])s1` the value was 0.95; for `CCC(C)NC(=O)C=C(C)c1ccc(Cl)cc1` (centres undefined), 3.92. In turn, `Cc1noc(-c2ccccn2)n1` gave a logP of 0.89. To `CCCNP(=O)(OC)Oc1cc(Cl)c(Cl)cc1Cl` (centres undefined) belongs 3.7; to `CN(C)c1ncnc2sccc12`, 1.82. To `CCCC(=O)NC(=O)C1CCC1` belongs 0.41; to `COc1cc(C)nn1-c1ccncn1`, 0.5; to `NS(=O)(=O)c1cccc(OC(=O)CNC(=O)c2ccccc2)c1`, 0.84.

In turn, `CN(C)C(=O)Cc1cccs1` yielded a logP of 0.65.

Take `Cc1cc(C)cc(OC(=O)CNC(=O)c2ccccc2)c1`: the logP was 3.4. As to `CCCCSC(C)(C)C(N)=O`, the log partition coefficient (logP) was 1.81.

`CC(=O)Nc1cnc2ccccc2c1` registered a logP of 1.92.

For `N#CSc1ccccc1`, the logP turned out to be 2.54. To `CCOC(=O)C(=Cc1cccc(F)c1)C(=O)OCC` belongs 3.19; to `CCN1CCCCCC1=O`, 0.65; to `CC(=O)NC1CC1c1ccccc1` (centres undefined), 1.43. The compound `COc1cc(Cc2cnc(N)nc2N)c(Br)cc1Br` registered a logP of 3.17. For `CCC(C)C(NC(C)=O)C(N)=O` (centres undefined) the value was -0.03; for `N#Cc1ccc(NC(=O)N=C(N)N)cc1Cl`, 1.9; for `CC1CNC(=Nc2ncc([N+](=O)[O-])s2)N1` (centres undefined), 1.82. Regarding `CCN(CC)CCNC(=O)c1cc(F)cc(Cl)c1OC`, the log partition coefficient (logP) is 3.18. For `CCCCC1OC(=O)c2cc(N)ccc21` (centres undefined) the value was 2.86.

`N#Cc1cc[n+]([O-])cc1` displayed a logP of -0.94.

The compound `CCN(CC)CCCNC(=O)c1ccccc1OC` showed a log partition coefficient (logP) of 1.76. For `Clc1cccc(-c2ccccc2)c1Cl` the value was 5.02.

As for `COCN1C(=O)CN=C(c2ccccc2)c2cc([N+](=O)[O-])ccc21`, the logP was found to be 2.05.

The compound `O=NN1CCCN(N=O)CC1` came in with a log partition coefficient (logP) of -0.51. For `CN(C)/N=N/c1ccccc1C(=O)NN` the value was 1.28. For `CC1CNC(=Nc2ncc([N+](=O)[O-])s2)N1C` (centres undefined) the value was 2.02; for `CCN(CC)CCNC(=O)c1cc(Cl)cc(Cl)c1`, 3.77; for `CC(C)(Cc1ccccc1)NC(=O)N(CCCl)N=O`, 3.73. For `CNc1cc(Cc2cnc(N)nc2N)cc(NC)c1` the value was 0.44; for `CN1C(=O)CN=C(c2ccccc2F)c2cc(N)ccc21`, 1.3. With `CN1C(=O)CN=C(c2ccccc2F)c2cc(I)ccc21`, the logP stood at 3.14. In turn, `O=[N+]([O-])C=Cc1ccccc1[N+](=O)[O-]` yielded a logP of 1.8. To `CCS(=O)(=O)CCn1ccnc1[N+](=O)[O-]` belongs -0.58. For `OCC1OC(Oc2cccc(C(F)(F)F)c2)C(O)C(O)C1O` (centres undefined) the value was 0.49; for `CCCCCCCCOn1c(=O)[nH]c(C)c(Br)c1=O`, 3.39. For `COc1ccc(NS(=O)(=O)C(F)(F)F)cc1` the value was 3; for `COc1cc(S(=O)(=O)CCN2CCOCC2)cc(OC)c1OC`, 1.29. In turn, `Clc1cc2ccccc2nn1` returned a logP of 1.57.

`CCCCCn1nnc2ccccc21` returned a logP of 3.22. To `COc1cc(Cc2cnc(N)nc2N)cc(OC)c1C(=O)N(C)C` belongs -0.21; to `c1ccc(-c2ncnc3ccccc23)cc1`, 2.71. Regarding `Nc1ccc(I)cc1C(=O)O`, the logP worked out at 2.06. For `ClC1C=CCC(Cl)C1Cl` (centres undefined) the value was 2.84; for `Cc1cc(-n2[nH]c(C)cc2=O)nc(C)n1`, 0.89; for `O=S1(=O)N=C(c2ccccc2)Nc2ccccc21`, 1.78. Turning to `O=S1(=O)NC(C2CC=CCC2)=Nc2ccccc21` (centres undefined), the logP worked out at 2.05. To `O=S1(=O)NC=Nc2cc(Cl)ccc21` belongs 1.01; to `NC(=O)CCn1nnc2ccccc21`, 0.27; to `OCC1OC(Oc2ccc(I)c(OC3OC(CO)C(O)C(O)C3O)c2I)C(O)C(O)C1O` (centres undefined), -1.31.

In turn, `O=NN(CCCl)C(=O)NC1CS(=O)(=O)CS(=O)(=O)C1` showed a logP of -0.94. For `O=C1CN=C(c2ccc(C(F)(F)F)cc2)c2ccccc2N1` the value was 3.34.

With `COc1ccc(C(c2ccc(OC)cc2)C(Cl)Cl)cc1`, the log partition coefficient (logP) is 4.47. In turn, `CCOC(=O)C(=Cc1ccc2c(c1)OCO2)C(C)=O` had a logP of 2.35. As to `NC(=O)Cn1nnc2ccccc21`, the logP is -0.1. For `CSc1nnc(C)c(=O)n1N` the value was -0.16; for `O=C1CN=C(c2ccccc2Cl)c2cc(Cl)ccc2N1`, 3.15. `COc1cc(Cc2cnc(N)nc2N)cc(OCc2ccccc2)c1OCc1ccccc1` displayed a logP of 4.09. For `O=C(O)Cc1ccc(OCc2ccccc2)c(Cl)c1` the value was 3.43; for `COc1cc(Cc2cnc(N)nc2N)cc(OC)c1I`, 2.4; for `CN(C)c1ccc(Cc2cnc(N)nc2N)cc1`, 1.82.

In turn, `O=C1OC(Cc2ccccc2)c2ccccc21` (centres undefined) registered a logP of 3.12.

For `O=C(NCC(O)CO)Nc1ccccc1` (centres undefined), the logP amounted to 0.28. As to `Cc1ccc(NC2=NCCN2)c(C)c1`, the logP was 1.79. In the case of `S=c1[nH]cnc2[nH]cnc12`, the logP was found to be 0.01. For `COc1ccccc1C(=O)NN` the value was 0.25; for `CSc1nnc(C2CCCCC2)c(=O)n1N`, 2.14; for `CC1NCCN1CCO` (centres undefined), -1.93. Consider `O=C1CN=C(c2ccc(Cl)cc2)c2cc(Br)ccc2N1`, for which the log partition coefficient (logP) is 3.78. To `NS(=O)(=O)c1cc2c(cc1[N+](=O)[O-])NCNS2(=O)=O` belongs 0.2; to `NC1CC2CC1c1ccc(C(F)(F)F)cc12` (centres undefined), 2.91; to `COc1cc(-n2nc(C)cc2OC)ncn1`, 1.53. Regarding `O=c1nc(-c2ccccc2)c2cc(Br)ccc2[nH]1`, the lipophilicity (logP) worked out at 2.71. For `CCc1nnc(SC)n(N)c1=O` the value was 0.46; for `CNC(=NC#N)NC`, -0.4. Consider `CSC(C)=NOC(=O)N(C)SN(C)C(=O)C(C)C`, for which the logP was 2.2. For `Cc1cccc2nccc(=O)n12` the value was 0.74; for `CCOc1c(OC)cc(Cc2cnc(N)nc2N)cc1OC`, 1.34. The compound `CCN1CCN=C1Nc1ncc([N+](=O)[O-])s1` displayed a logP of 2.28. To `Cc1ccc2c([N+](=O)[O-])cc[n+]([O-])c2c1` belongs 1.42; to `O=NN1CCC(c2ccccc2)CC1`, 2.59. `CC(C)NC(=O)C=Cc1ncc([N+](=O)[O-])s1` returned a lipophilicity (logP) of 1.76.

`Nc1ccccc1OC1OC(CO)C(O)C(O)C1O` (centres undefined) came in with a logP of -1.23. For `COC12C(COC(N)=O)C3=C(C(=O)C(C)=C(N)C3=O)N1CC1C2N1C(=O)OCc1ccccc1` (centres undefined) the value was 1.34; for `CNN=CCCc1ccccc1`, 1. On to `CN(C)CC(=O)NCc1ccccc1`, for which the logP came to 1.11.

Consider `COc1ccc2c(c1)C(c1ccccc1)=NCC(=O)N2`, for which the logP worked out at 2.24. To `CC1(C)N=C(N)N=C(N)N1c1ccc(N)cc1` belongs -0.59. On to `CCN1C(=O)CN=C(c2ccccc2)c2cc(N)ccc21`, for which the logP turned out to be 1.81.

In the case of `CSCN1C(=O)CN=C(c2ccccc2)c2cc(N)ccc21`, the logP worked out at 1.92. With `Cn1c(C(C)(C)O)cnc1[N+](=O)[O-]`, the lipophilicity (logP) worked out at 0.43. To `O=CNc1nccs1` belongs 0.54; to `COc1cccc(C2=NCC(=O)Nc3ccc(Cl)cc32)c1`, 3.14. To `CCCCc1ccc2nc(C(F)(F)F)[nH]c2c1` belongs 4.27; to `FC1C(Cl)C(Cl)C(Cl)C(Cl)C1Cl` (centres undefined), 3.19.

The compound `CN1C(=O)C(=Cc2ccc([N+](=O)[O-])o2)SC1=S` came in with a logP of 1.06. On to `CC1(C)SC2C(NC(=O)C(O)c3ccccc3)C(=O)N2C1C(=O)O` (centres undefined), for which the logP came out at 1.4. To `CN(C)CCc1cccs1` belongs 1.99; to `CC(=O)C(C#N)=NNc1cccc(Cl)c1`, 3.9. As for `NC(=O)CCCn1nnc2ccccc21`, the lipophilicity (logP) came to 0.37. Compound `CNC(=O)C(Cc1ccccc1)NC(C)=O` (centres undefined) gave a logP of 0.4. For the compound `COc1cc(CC(C)N)c(OC)cc1Br` (centres undefined), the logP is 2.58. As to `CCOP(=S)(OCC)SCS(=O)(=O)C(C)(C)C`, the logP was determined as 2.48. For `CN1C(=N)SC(=Cc2ccc([N+](=O)[O-])o2)C1=O` the value was 1.44; for `OCC1C(Cl)C(Cl)C(Cl)C(Cl)C1Cl` (centres undefined), 2.94. With `O=NN(CCCl)C(=O)NCCO`, the logP was 0.3.

The compound `CON(C)C(=O)Nc1ccc(C(C)C)cc1` returned a logP of 2.95. Take `O=S1(=O)N=CNc2ccc(Cl)cc21`: the logP was found to be 1.07. For `CC(=O)N(C)/N=N/c1ccc(F)cc1` the value was 2.77. To `CC(=O)N(c1ccccc1)S(C)(=O)=O` belongs 0.29; to `CCOP(=S)(OCC)Oc1ccc(SC)cc1Cl`, 4.4. For `CC(=O)Nc1cc(C(F)(F)F)cc(C(F)(F)F)c1Br` the value was 3.51; for `Oc1ccnc2c(O)cccc12`, 0.62. For the compound `CNc1ncnc2sccc12`, the logP was 1.43. To `Nc1nc(N)nc(-c2cccc(Br)c2)n1` belongs 2.44.

For `COC1C(Cl)C(Cl)C(Cl)C(Cl)C1OC` (centres undefined), the logP worked out at 2.82. In the case of `CN(C)N=Nc1cccc(C(=O)O)c1`, the logP was found to be 2.03.
